In PMC6664820, “Novel natural and synthetic inhibitors of solute carriers SGLT1 and SGLT2” (Pharmacology Research & Perspectives, 2019):
“Also recorded” adds a separate entry of the source. Where two headings read alike, the source gives them in different places.

Key:
SGLT1 [1] = molecular target: T1, SGLT1 (Homo sapiens, UniProt P13866); assay: SGLT1 inhibition assay for validation of screening hits and similar compounds (1‐NBD‐glucose uptake, CHO‐hSGLT1 cells); format: cell-based; details: for IC50: 1‐NBD‐glucose uptake, CHO‐hSGLT1, mean of n biological replicates, or individual measurements where n=2, read-out: SGLT1‐IC50 Mean; for inhibition at 50 µM: mean inhibition with 50 μmol/L inhibitor, read-out: SGLT1 inhibition; for SGLT1/2 inhibition stated in words: SGLT1 and/or SGLT2, discussion statements; for remaining activity at 5 µM / remaining activity at 50 µM: 0.5 h, mean, concentration not given, read-out: NORMALIZED SGLT1 ACTIVITY (%)
T1 sequence (P13866 1-664): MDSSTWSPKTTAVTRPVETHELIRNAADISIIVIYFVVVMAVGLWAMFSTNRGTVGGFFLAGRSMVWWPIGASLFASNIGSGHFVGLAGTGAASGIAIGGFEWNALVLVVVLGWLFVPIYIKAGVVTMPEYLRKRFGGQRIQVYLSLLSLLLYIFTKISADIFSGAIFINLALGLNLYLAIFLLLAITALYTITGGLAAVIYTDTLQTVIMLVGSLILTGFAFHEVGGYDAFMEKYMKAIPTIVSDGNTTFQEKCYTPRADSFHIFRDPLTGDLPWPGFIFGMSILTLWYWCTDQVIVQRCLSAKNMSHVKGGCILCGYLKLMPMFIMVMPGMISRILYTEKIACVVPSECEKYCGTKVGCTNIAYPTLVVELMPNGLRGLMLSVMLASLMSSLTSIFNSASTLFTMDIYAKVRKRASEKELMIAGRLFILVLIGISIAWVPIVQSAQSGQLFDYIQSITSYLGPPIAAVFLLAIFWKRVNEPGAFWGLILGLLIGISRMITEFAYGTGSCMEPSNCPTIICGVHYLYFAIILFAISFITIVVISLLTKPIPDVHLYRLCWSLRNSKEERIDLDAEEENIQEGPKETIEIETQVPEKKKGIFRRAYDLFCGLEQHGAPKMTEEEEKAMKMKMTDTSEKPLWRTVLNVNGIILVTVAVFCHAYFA

hSGLT2 [2] = molecular target: T2, hSGLT2 (Homo sapiens, UniProt P31639); assay: SGLT2 inhibition assay for validation of screening hits and similar compounds (1‐NBD‐glucose uptake, CHO‐hSGLT2 cells); format: cell-based; details: for IC50: 1‐NBD‐glucose uptake, CHO‐hSGLT2, mean of n biological replicates, or individual measurements where n=2, read-out: SGLT2‐IC50 Mean; for inhibition at 50 µM: mean inhibition with 50 μmol/L inhibitor; for remaining activity at 5 µM / remaining activity at 50 µM: 0.5 h, mean, concentration not given, read-out: NORMALIZED SGLT2 ACTIVITY (%)
T2 sequence (P31639 1-672): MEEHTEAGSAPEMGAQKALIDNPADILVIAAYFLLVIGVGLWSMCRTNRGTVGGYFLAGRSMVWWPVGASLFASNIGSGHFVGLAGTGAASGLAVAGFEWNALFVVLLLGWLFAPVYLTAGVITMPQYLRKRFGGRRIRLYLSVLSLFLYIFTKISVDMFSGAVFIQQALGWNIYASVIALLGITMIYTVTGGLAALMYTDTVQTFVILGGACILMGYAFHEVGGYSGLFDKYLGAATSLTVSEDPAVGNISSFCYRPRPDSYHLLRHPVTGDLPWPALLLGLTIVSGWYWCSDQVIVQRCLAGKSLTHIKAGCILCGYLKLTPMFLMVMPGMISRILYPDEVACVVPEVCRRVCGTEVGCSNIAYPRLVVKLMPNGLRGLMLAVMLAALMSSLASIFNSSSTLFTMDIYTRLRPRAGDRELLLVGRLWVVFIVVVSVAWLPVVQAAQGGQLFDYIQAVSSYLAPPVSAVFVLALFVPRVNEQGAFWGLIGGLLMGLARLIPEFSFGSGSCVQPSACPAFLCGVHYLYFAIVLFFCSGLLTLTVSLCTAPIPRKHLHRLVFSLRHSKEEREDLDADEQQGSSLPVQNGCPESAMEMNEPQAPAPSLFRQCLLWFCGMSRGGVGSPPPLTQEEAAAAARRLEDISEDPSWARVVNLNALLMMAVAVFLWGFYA

SGLT1 [3] = molecular target: T1, SGLT1; assay: Cellular uptake and transcellular transport of 14C‐α‐methylglucose by Caco‐2 cell monolayers; format: cell-based; parameters: Caco‐2 cells expressing endogenous SGLT1; host or cells: Caco-2; details: 90 minutes
Protocol: Caco‐2 cells (passage numbers 7 and 13) were seeded (29,700 cells) onto polycarbonate Transwell® inserts (6.5 mm diameter and 3.0 μm pores) and cultured for 21‐24 days to obtain differentiated polarized monolayers. Apical and basal medium was refreshed twice a week and the final medium refresh was done the day before the uptake and transport experiment. TransEpithelial Electrical Resistance (TEER) was measured with an EVOM^2 epithelial voltmeter (World Precision Instruments, Sarasota, USA) and inserts were used if TEER > 3000 Ω/cm^2. First, cells were washed twice apically and basally with D‐glucose free DMEM. Then, 100 μL (+)‐pteryxin dilutions (50 μmol/L and 500 μmol/L), P p.‐extract dilutions (1/200 and 1/2000), or 0.5% (v/v) DMSO vehicle control were applied apical in D‐glucose free DMEM with 0.3% (w/v) BSA and 40 nCi/mL ^14C‐α‐methylglucose. The basal acceptor wells (24‐well) contained 350 μL D‐glucose free DMEM with 0.3% (w/v) BSA. Then, cells were incubated in a humidified incubator at 37°C with 5% CO2 for 90 minutes. Inserts were transferred to a clean 24‐well plate and washed once with DMEM (with D‐glucose) and once with HBSS, with 1 mL at the basal and 100 μL at the apical side. Cells were lysed with 100 μL of 0.2 mol/L NaOH for 30 minutes at 37°C and lysates were analyzed by liquid scintillation counting on a Tri‐Carb 2910 TR (Perkin Elmer, Groningen, The Netherlands) to determine cellular ^14C‐α‐methylglucose uptake. Basal media were analyzed accordingly to determine transcellular ^14C‐α‐methylglucose transport. Mean ± SD ^14C‐α‐methylglucose uptake and transport were calculated from two biological replicates, each consisting of four technical replicates.

transporters = tested on: transporters; parameters: method as in earlier work; details: known transporter targets, per category of inhibited transporters, cited from earlier work
SGLT1 [4] = molecular target: T1, SGLT1; assay: cell-based; parameters: host or cells: CHO-K1; details: CHO, read-out: % of control remaining
hSGLT2 [5] = molecular target: T2, hSGLT2; assay: cell-based; parameters: host or cells: CHO-K1; details: CHO, read-out: % of control remaining
CHO‐hSGLT1/2 cells = assay: Cytotoxicity assay (ToxiLight, adenylate kinase leakage into CHO‐SGLT1/2 inhibition assay media); parameters: CYTOTOXICITY / CY[…], mean / CYTOTOXICITY (% of vehicle control) Mean / CYTOTOXICITY, mean / CY[…] (% of vehicle control) Mean: dose or concentration left out as unconfirmed; details: mean;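 also: bioluminescent read-out of adenylate kinase released from lysed cells into the medium, given relative to DMSO vehicle control defined as 0%, higher meaning more cytolysis; percent of DMSO vehicle control bioluminescence with vehicle set at 0%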
Protocol: The cytotoxicity of representative SGLT1/2 inhibitors and compounds from the different chemical clusters was tested. Cytotoxicity was determined using the ToxiLight bioassay kit according to the supplier's instructions. This nondestructive assay measures leakage of the enzyme adenylate kinase (AK) from damaged cells into the CHO‐SGLT1/2 inhibition assay media, ie the degree of cytolysis. […] Next, bioluminescence was measured using a FlexStation 3 Multi‐Mode Microplate Reader (Molecular Devices) by 1 second integrated reading. Cytotoxicity was expressed as the percentage of bioluminescence of the DMSO vehicle control which was set at 0%. If applicable, statistical outliers were determined using Grubbs’ test (alpha = 0.05) and excluded for calculation of the mean ± SD.

| Compound | IC50 (SGLT1 [1]) [µM] | inhibition at 50 µM (SGLT1 [1]) [%] | IC50 (hSGLT2 [2]) [µM] | SGLT1/2 inhibition stated in words (SGLT1 [1]) | inhibition at 50 µM (hSGLT2 [2]) [%] | INHIBITED TRANSPORTERS (transporters) | other results |
| --- | --- | --- | --- | --- | --- | --- | --- |
| CC=C(C)C(=O)OC1c2c(ccc3ccc(=O)oc23)OC(C)(C)C1OC(C)=O (stereo not drawn) [(+)‐pteryxin] | 12 | 89 | 9 | – | – | – | Inhibition of 14C‐α‐methylglucose cellular uptake (SGLT1 [3]; Caco‐2, 50 μmol/L): 18%; Inhibition of transcellular transport of 14C‐α‐methylglucose (SGLT1 [3]; Caco‐2, 50 μmol/L): 37%; Inhibition of 14C‐α‐methylglucose cellular uptake (SGLT1 [3]; Caco‐2, 500 μmol/L): 91%; Inhibition of transcellular transport of 14C‐α‐methylglucose (SGLT1 [3]; Caco‐2, 500 μmol/L): 89% |
| CC(C)COCC(CN(Cc1ccccc1)c1ccccc1)N1CCCC1 (stereo not drawn) [Bepridil, bepridil, reference compound] | 10 | 74 | 14 | showed SGLT1/2 inhibition | 70 | CACNA1A, CACNA1H, CACNA2D2, KCNH2, KCNQ1, KCNH2 | – |
| CCCCN1CCCCC1C(=O)Nc1c(C)cccc1C (stereo not drawn) [Bupivacaine, bupivacaine, reference compound] | 23 | 64 | 43 | novel SGLT1/2 inhibitors | – | SCN10A | – |
| C[C@@H]1O[C@@H](O[C@H]2[C@H](O[C@H]3CC[C@@]4(C)[C@@H](CC[C@]5(C)[C@@H]4CC=C4[C@@H]6CC(C)(C)CC[C@]6(C(=O)O[C@@H]6O[C@H](CO[C@@H]7O[C@H](CO)[C@@H](O[C@@H]8O[C@@H](C)[C@H](O)[C@@H](O)[C@H]8O)[C@H](O)[C@H]7O)[C@@H](O)[C@H](O)[C@H]6O)CC[C@]45C)[C@]3(C)CO)OC[C@H](O)[C@@H]2O)[C@H](O)[C@H](O)[C@H]1O [Hederacoside C] | – | – | – | – | – | – | remaining activity at 5 µM (SGLT1 [4]): 97.9%; remaining activity at 50 µM (SGLT1 [4]): 102%; remaining activity at 5 µM (hSGLT2 [5]): 113%; remaining activity at 50 µM (hSGLT2 [5]): 115%; CYTOTOXICITY (CHO‐hSGLT1/2 cells): -28 |
| C=C[C@H]1C[N@@]2CC[C@H]1C[C@@H]2[C@@H](O)c1ccnc2ccc(OC)cc12 [Quinidine, quinidine, reference compound] | 62 | 50 | 56 | – | 49 | SLC22A1, SLC22A2, SLC22A5, SLCO1A2, SLC22A4; also recorded: SLC22A8, SLCO1B1 | remaining activity at 5 µM (SGLT1 [1]): 93%; remaining activity at 50 µM (SGLT1 [1]): 50%; remaining activity at 5 µM (hSGLT2 [2]): 92%; remaining activity at 50 µM (hSGLT2 [2]): 51% |
| CC(=O)OC[C@H]1O[C@@H](O[C@@H]2[C@@H](O)[C@H](O[C@@H]3[C@H](O)C(C)(C)C[C@H]4C5=CC[C@@H]6[C@@]7(C)CC[C@H](O[C@@H]8O[C@H](C(=O)O)[C@@H](O)[C@H](O)[C@H]8O[C@@H]8O[C@H](CO)[C@H](O)[C@H](O)[C@H]8O[C@@H]8O[C@H](CO)[C@@H](O)[C@H](O)[C@H]8O)[C@](C)(CO)[C@@H]7CC[C@@]6(C)[C@]5(C)CC[C@@]34C)OC[C@@H]2O)[C@H](OC(C)=O)[C@@H](OC(C)=O)[C@@H]1OC(C)=O [Soyasaponin Ab] | – | – | – | – | – | – | remaining activity at 5 µM (SGLT1 [4]): 104%; remaining activity at 50 µM (SGLT1 [4]): 104%; remaining activity at 5 µM (hSGLT2 [5]): 106%; remaining activity at 50 µM (hSGLT2 [5]): 96.8%; CYTOTOXICITY (CHO‐hSGLT1/2 cells): 5 |
| C=C[C@H]1C[N@@]2CC[C@H]1C[C@H]2[C@H](O)c1ccnc2ccc(OC)cc12 [quinine, reference compound] | – | 24 | – | – | 34 | SLC22A1, SLC22A2, SLC22A5, SLCO1A2, SLC22A4 | remaining activity at 5 µM (SGLT1 [1]): 101%; remaining activity at 50 µM (SGLT1 [1]): 76%; remaining activity at 5 µM (hSGLT2 [2]): 92%; remaining activity at 50 µM (hSGLT2 [2]): 66% |
| CCCN1CCCC[C@H]1C(=O)Nc1c(C)cccc1C [ropivacaine, reference compound] | – | 30 | – | novel SGLT1/2 inhibitors | – | SCN10A | – |
| CC(CN(C)C)CN1c2ccccc2CCc2ccccc21 (stereo not drawn) [trimipramine, reference compound] | – | 43 | – | novel SGLT1/2 inhibitors | – | SLC6A2, SLC6A3, SLC6A4 | – |
| COc1ccc(CCN(C)CCCC(C#N)(c2ccc(OC)c(OC)c2)C(C)C)cc1OC (stereo not drawn) [verapamil] | – | – | – | – | – | – | INHIBITED TRANSPORTERS (transporters; sodium (co-)transporters): SLC6A4, SLC22A1, SLC22A4, SLC22A5 |
